For experiment [1], the system named is DMBA-induced mammary carcinomas. Description: DMBA-induced mammary carcinoma model, oral treatment, tumor weight by palpation (Experiment 1). In kind it is in vivo, female Sprague-Dawley rats. As to conditions: for efficacy of standard cytostatics: DMBA-induced mammary carcinomas in test rats. An excerpt: The first tumor appeared approximately one month after feeding the subject rats with DMBA. Tumor weights were estimated on the basis of tumor volume. This was accomplished by palpating tumors and comparing the volumes of the palpated tumors with the volumes of prefabricated plasticine models in the manner taught by Druckrey, et al., “Experimentelle Beiträge zum Dosis-Problem in der Krebs-Chemotherapie und zur Wirkungsweise von Endoxan, Dtsch. Med. Wschr., 88:651 (1963). Each of the relevant plasticine models was then weighed and converted to a tumor weight by means of a factor reflecting the relationship between the specific weight of each tumor tissue and its corresponding plasticine model. […] A statistical evaluation of the resulting data indicated a correlation coefficient of 0.98. Test rats having a total tumor weight of approximately 1 g were randomly allocated amongst various dosage and control groups, each group having a total of 6-7 rats. In this way, the inventors were able to ensure an approximately equal distribution amongst the experimental groups of tumors having different latencies, total tumor weight and numbers of tumor nodes. […] The control group was given tap water in accordance with the same schedule. […] During the observation period, tumor weights were determined for each of the test rats at regular intervals. The test rats were all housed under specific pathogen free (SPF) conditions with unrestricted water supply (acidified to pH 3) and standard pellet lab chow (Altromin 1324). […] J. Oncol., 2:161 (1993).

The subject of experiment [2] is DMBA-induced mammary carcinomas / KB implanted tumors. The experiment can be described thus: Summary statement on Experiments 1 and 2 (DMBA and KB tumor models, model not told per compound). The class given is in vivo, rats / mice. As to conditions: for GII (growth inhibition index): specified dosage regimens, model not given, GII>100% = tumor regression; for tumor remission: model and regimen not given. As to the method: The inventors induced mammary carcinomas in female Sprague-Dawley rats (Mollegaard Breeding Center, DK-4236 Ejby) aged 50 days by administering a single dose of 20 mg 7,12-dimethylbenz(a)anthracene (DMBA) dissolved in 1 ml of olive oil to each rat by gavage. The first tumor appeared approximately one month after feeding the subject rats with DMBA.
(§1) The inventors used female, nu/nu mice (strain NMRI) aged 9-10 weeks and weighing 21-29 g (Breeder: Bomholtgard Breeding and Research Center, DK-8680 Ry) for testing. Tumor fragments consisting of the human KB tumors (ATCC; Rockville, Md.; cell line ATCC CCL 17 KB, human epidermoid larynx tumors), and having an average diameter of 2 mm, were implanted subcutaneously into the right side of the test mice.
Results from Experiments 1 and 2 were calculated and expressed in accordance with the growth inhibition index (GII) described in Voegeli, et al., “Selective cytostatic activity of Hexadecylphosphocholine against tumor cells in vitro leads to the establishment of an in vivo screening system for phospholipid analogues,” Int. J. Oncol., 2:161 (1993). The GII values from Experiments 1 and 2 are detailed in Table 1 below.

In experiment [3] the test system is human KB tumors (ATCC CCL 17 KB, human epidermoid larynx tumors). Description: KB tumor model, subcutaneous implants in nude mice, oral treatment (Experiment 2). The class given is in vivo, female nu/nu mice (strain NMRI). Conditions: for efficacy of standard cytostatics: KB implanted tumors in test mice.
Source text: as §1
The test mice were randomly assigned to various treatment and control groups.
Tumor weights were estimated by first palpating the tumors and then comparing the volumes of the palpated tumors with the volumes of prefabricated plasticine models according to Druckrey, et al., “Experimentelle Beiträge zum Dosis-Problem in der Krebs-Chemotherapie und zur Wirkungsweise von Endoxan, Dtsch. Med. Wschr., 88:651 (1963). After determining the weight of the models, the inventors converted each of these values to a tumor weight by determining the relationship between the specific weight of each tumor tissue and its corresponding plasticine model. To ensure the accuracy of this method, the inventors simultaneously estimated the weights of 99 individual tumors by both palpation and direct weighing of extirpated tumors.
Once the KB tumor implants attained a weight of approximately 0.2 g, the inventors commenced therapy with the compounds of Examples 1, 8, 17, 21, 22, 24 and 25 of the subject application. Each compound was dissolved in 0.9% NaCl and administered per os (stomach tube) in accordance with the regimen schedules detailed in Graphs 10-17 hereinbelow. The control mice were treated with the vehicle alone.
During the observation period, tumor weights were determined for each of the test mice at regular intervals.
The test mice were all housed under specific pathogen free (SPF) conditions with unrestricted water supply (acidified to pH 3) and standard pellet lab chow (Altromin 1324).

The mark [4] stands for this setting: 4 × 100 mg/kg per os, treatment day 0, 3, 7, 10, >100 = tumor regression.
Where [5] appears, read: 2 × 316 mg/kg per os, treatment day 0, 7.

Counter-ions that a name gives are not always drawn.

On to `CCCCCCCCCCCCCCCCOP(=O)([O-])OCC1CCC[N+]1(C)C` (centres unmarked) [Example 20, Hexadecyl (1,1-dimethylpyrrolidinio-2-yl)methyl phosphate], for which the “DMBA (G.I.I. %)” value in experiment [1] (setting [4]) is given as 99%. For the same compound, in experiment [2], the “GII (growth inhibition index)” value stood at 100%.

Take `O=P1(N(CCCl)CCCl)NCCCO1` (centres unmarked) [Cyclophosphamide, reference compound]: the “efficacy of standard cytostatics” value in experiment [1] and in experiment [3] was “relatively ineffective” throughout.

As for `CCCCCCCCCCCCCCCCCCOP(=O)([O-])OC1CC[N+](C)(C)C1` (centres unmarked) [Example 17, Octadecyl 1,1-dimethylpyrrolidinio-3-yl phosphate], in experiment [3] (2 × 100 mg/kg per os, treatment day 0, 7), the “KB (G.I.I. %)” value stood at 90%.

On to `CCCCCCCCCCCCCCCCCCOP(=O)([O-])OCC1CCC[N+](C)(C)C1` (centres unmarked) [Example 10, Octadecyl (1,1-dimethylpiperidinio-3-yl)methyl phosphate], for which the “KB (G.I.I. %)” value in experiment [3] (setting [5]) is 99%. The “GII (growth inhibition index)” value in experiment [2] was found to be 100%.

Regarding `CCCCCCCCCCCCCCCCOP(=O)([O-])OC1CC2CCC(C1)[N+]2(C)C` (centres unmarked) [Example 24, Hexadecyl 1,1-dimethyltropanio-4-yl phosphate], the “KB (G.I.I. %)” value in experiment [3] (2 × 215 mg/kg per os, treatment day 0, 7) is 108%.

As for `CCCCCCCCCCCCCCCCCCOP(=O)([O-])OCC1CCCC[N+]1(C)C` (centres unmarked) [Example 8, Octadecyl (1,1-dimethylpiperidinio-2-yl)methyl phosphate], the “DMBA (G.I.I. %)” value in experiment [1] (setting [4]) was found to be 125%. For the same compound, the “KB (G.I.I. %)” value in experiment [3] (setting [5]) is on record as 100%. In addition, the “GII (growth inhibition index)” value in experiment [2] is given as 100%.

On to `N.N.[Cl][Pt][Cl]` [Cisplatin, reference compound], for which the “efficacy of standard cytostatics” value in experiment [1] and in experiment [3] was “relatively ineffective” each time.

In the case of `CCCCCCCCCCCCCCCCCCOP(=O)([O-])OCC1CCC[N+]1(C)C` (centres unmarked) [Example 21, Octadecyl (1,1-dimethylpyrrolidinio-2-yl)methyl phosphate], the “DMBA (G.I.I. %)” value in experiment [1] (setting [4]) is given as 116%. Further, the “KB (G.I.I. %)” value in experiment [3] (setting [5]) amounted to 106%. In addition, the tumor remission entry in experiment [2] is listed as “complete disappearance of tumors”.

For `COc1cccc2c1C(=O)c1c(O)c3c(c(O)c1C2=O)C[C@@](O)(C(=O)CO)C[C@@H]3O[C@H]1C[C@H](N)[C@H](O)[C@H](C)O1` [Adriamycin, reference compound], the “efficacy of standard cytostatics” value in experiment [1] and in experiment [3] was “relatively ineffective” throughout.

For `CCCCCCCCCCCCCCCCCCOP(=O)([O-])OC1CC[N+](C)(C)CC1` [Example 1, 4-(((Octadecyloxy)hydroxyphosphenyl)oxy)-1,1-dimethylpiperidinium hydroxide internal salt], the “DMBA (G.I.I. %)” value in experiment [1] (setting [4]) is given as 119%; in experiment [1] (14 × 31.6 mg/kg per os, treatment day 0-13), 108%; in experiment [1] (28 × 68.1 mg/kg per os, 'large tumors', treatment day 0-27), 137%. In addition, the “KB (G.I.I. %)” value in experiment [3] (1 × 511 mg/kg per os, treatment day 0) is reported as 103%. Besides, in experiment [2], the tumor remission entry is “complete disappearance of tumors”.

`CCCCCCCCCCCCCCCCCCOP(=O)([O-])OC1CC2CCC(C1)[N+]2(C)C` (centres unmarked) [Example 25, Octadecyl 1,1-dimethyltropanio-4-yl phosphate]: the “KB (G.I.I. %)” value in experiment [3] (setting [5]) turned out to be 110%. The tumor remission result in experiment [2] is “complete disappearance of tumors”.

Take `CCCCCCCCCCCCCCCCCCOP(=O)([O-])OC1CCC[N+](C)(C)CC1` (centres unmarked) [Example 13, Octadecyl 1,1-dimethylhexahydroazepinio-4-yl phosphate]: the “DMBA (G.I.I. %)” value in experiment [1] (1 × 511 mg/kg per os, 'large tumors', treatment day 0) worked out at 145%; in experiment [1] (14 × 46.4 mg/kg per os, treatment day 0-13), 129%.

For the compound `CCCCCCCCCCCCCCCCOP(=O)([O-])OC1C[N+]2(C)CCC1CC2` (centres unmarked) [Example 22, Hexadecyl 1-methylquinuclidinio-3-yl phosphate], the “DMBA (G.I.I. %)” value in experiment [1] (setting [4]) stood at 105%. Moreover, the “KB (G.I.I. %)” value in experiment [3] (2 × 383 mg/kg per os, treatment day 0, 7) amounted to 102%.
